# According to patent US5171837A, “Peptide capable of binding interleukin 6 and an adsorbent comprising the peptide immobilized on a carrier” (Kuraray Co., Ltd., priority 1989, dated 1992):
# Non-standard residues stand in square brackets, D forms with d. Residues, ends and D or L forms follow the SMILES beside them. *: point of attachment. X1 = NCCCCCCCCCCCCCCCCCC(=O)*; 12Ado = NCCCCCCCCCCCC(=O)O
# Molecular target: T1, IL-6 (Homo sapiens, UniProt P05231)
# T1 construct: purchased Genzyme Corp
# Experiment: Activity for inhibition of binding of IL-6 to receptor by peptide (IL-6 receptor expression cells, FITC labeled anti-IL-6 antibody)
# Conditions: 5 μg of the peptide, 50 ng of IL-6, 10^5 IL-6 receptor expression cells, 4° C for one hour
# Experimental: A human lymphocyte fraction was obtained from human peripheral blood with Ficoll-Paque (manufactured by Pharmacia-LKB). The fraction was reacted with a cultured supernatant of Epstein-Barr Virus producing cell strain B958 to transform the human lymphocytes to obtain IL-6 receptor expression cells.
# 1 mg of anti-human IL-6 antibody [Rabbit Anti-human Interleukin-6, manufactured by Genzyme Corp.] was dissolved in a 0.05M carbonate buffer solution (pH: 9.5) and to the resulting solution was added 10 μg of FITC [Fluorescein isothiocyanate, manufactured by Sigma Corp.]. The mixture was stirred at 4° C. overnight. The resulting solution was passed through PD-10 column (manufactured by Pharmacia-LKB) to obtain FITC labeled anti-IL-6 antibody as a firstly eluted fraction.
# 10^5 IL-6 receptor expression cells were suspended in 0.5 % BSA (bovine serum albumin, manufactured by Sigma Corp.)-PBS (a phosphate buffer solution containing 0.15 M sodium chloride, pH 7.4) and to the resulting suspension were added 50 ng of IL-6 (Human recombinant interleukin-6, manufactured by Genzyme Corp.) and 5 μg of the peptide obtained in any one of Examples 1 to 96. The suspension was allowed to stand at 4° C for one hour. Then, after washing the cells centrifugally with 0.5% BSA-PBS three times (1200 rpm, 5 min.), 1 μg of FITC labeled anti-IL-6 antibody was added and the mixture was allowed to stand at 4° C. for 30 minutes. After washing with 0.5% BSA-PBS three times, the intensity of fluorescence of the cells was determined. The binding inhibition activity of the peptide of each Example was evaluated, by taking the value obtained without addition of the peptide as a control and taking the value- obtained without addition of IL-6 as a blank, according to the following formula: [formula]
# T1 sequence (P05231 30-212): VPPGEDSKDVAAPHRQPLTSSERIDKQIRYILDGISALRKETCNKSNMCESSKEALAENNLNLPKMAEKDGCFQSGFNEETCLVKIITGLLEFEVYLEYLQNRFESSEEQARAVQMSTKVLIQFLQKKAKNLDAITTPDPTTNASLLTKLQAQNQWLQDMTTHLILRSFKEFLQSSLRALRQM
row,Structure (SMILES),Binding inhibition activity (%)
1,CC(C)C[C@H](NC(=O)[C@@H](NC(=O)[C@@H](NC(=O)[C@H](CO)NC(=O)[C@H](CC(=O)O)NC(=O)CNC(=O)[C@@H]1CCCN1C(=O)[C@H](CC(C)C)NC(=O)[C@H](CO)NC(=O)[C@@H](NC(=O)CCCCCCCCCCCN)[C@@H](C)O)C(C)C)[C@@H](C)O)C(=O)N[C@H](C(=O)N[C@@H](CS)C(=O)N1CCC[C@H]1C(=O)NCC(=O)N[C@H](C(=O)N[C@@H](CCC(=O)O)C(=O)N1CCC[C@H]1C(=O)N[C@@H](CCC(=O)O)C(=O)N[C@@H](CC(=O)O)C(=O)N[C@@H](CCC(=O)O)C(=O)N[C@@H](CCC(=O)O)C(=O)N[C@@H](CCC(=O)O)C(=O)N[C@@H](CCC(=O)O)C(=O)N[C@@H](CCC(=O)O)C(=O)O)C(C)C)[C@@H](C)O [Example 3] (H-[12Ado]TSLPGDSVTLTCPGVEPEDEEEEE-OH),40
2,CC(C)C[C@H](NC(=O)[C@@H](NC(=O)[C@@H](NC(=O)[C@H](CO)NC(=O)[C@H](CC(=O)O)NC(=O)CNC(=O)[C@@H]1CCCN1C(=O)[C@H](CC(C)C)NC(=O)[C@H](CO)NC(=O)[C@@H](NC(=O)CCCCCCCCCCCCCCCCCN)[C@@H](C)O)C(C)C)[C@@H](C)O)C(=O)N[C@H](C(=O)N[C@@H](CS)C(=O)N1CCC[C@H]1C(=O)NCC(=O)N[C@H](C(=O)N[C@@H](CCC(=O)O)C(=O)N1CCC[C@H]1C(=O)N[C@@H](CCC(=O)O)C(=O)N[C@@H](CC(=O)O)C(=O)NCC(=O)O)C(C)C)[C@@H](C)O [Example 4] (X1-TSLPGDSVTLTCPGVEPEDG-OH),42
3,CC(C)C[C@H](NC(=O)[C@H](Cc1c[nH]cn1)NC(=O)[C@@H](NC(=O)[C@@H](NC(=O)CNC(=O)CCCCCCCCCCCN)[C@@H](C)O)C(C)C)C(=O)N[C@@H](CC(C)C)C(=O)N[C@H](C(=O)N[C@@H](CC(=O)O)C(=O)N[C@H](C(=O)N1CCC[C@H]1C(=O)N1CCC[C@H]1C(=O)N[C@@H](CCC(=O)O)C(=O)N[C@@H](CCC(=O)O)C(=O)N1CCC[C@H]1C(=O)N[C@@H](CCC(N)=O)C(=O)N[C@@H](CC(C)C)C(=O)N[C@@H](CO)C(=O)N[C@@H](CS)C(=O)N[C@@H](Cc1ccccc1)C(=O)N[C@@H](CCCNC(=N)N)C(=O)N[C@@H](CCCCN)C(=O)N[C@@H](CCC(=O)O)C(=O)N[C@@H](CCC(=O)O)C(=O)N[C@@H](CCC(=O)O)C(=O)N[C@@H](CCC(=O)O)C(=O)N[C@@H](CCC(=O)O)C(=O)O)C(C)C)C(C)C [Example 11] (H-[12Ado]GTVHLLVDVPPEEPQLSCFRKEEEEE-OH),34
4,CC(C)C[C@H](NC(=O)[C@H](Cc1c[nH]cn1)NC(=O)[C@@H](NC(=O)[C@@H](NC(=O)CNC(=O)CCCCCCCCCCCCCCCCCN)[C@@H](C)O)C(C)C)C(=O)N[C@@H](CC(C)C)C(=O)N[C@H](C(=O)N[C@@H](CC(=O)O)C(=O)N[C@H](C(=O)N1CCC[C@H]1C(=O)N1CCC[C@H]1C(=O)N[C@@H](CCC(=O)O)C(=O)N[C@@H](CCC(=O)O)C(=O)N1CCC[C@H]1C(=O)N[C@@H](CCC(N)=O)C(=O)N[C@@H](CC(C)C)C(=O)N[C@@H](CO)C(=O)N[C@@H](CS)C(=O)N[C@@H](Cc1ccccc1)C(=O)N[C@@H](CCCNC(=N)N)C(=O)N[C@@H](CCCCN)C(=O)NCC(=O)O)C(C)C)C(C)C [Example 12] (X1-GTVHLLVDVPPEEPQLSCFRKG-OH),35
5,C[C@H](NC(=O)[C@@H]1CCCN1C(=O)[C@H](CO)NC(=O)[C@H](CC(N)=O)NC(=O)[C@H](CCC(N)=O)NC(=O)[C@H](Cc1ccccc1)NC(=O)[C@H](CCCCN)NC(=O)[C@H](CCCNC(=N)N)NC(=O)CCCCCCCCCCCN)C(=O)N[C@@H](CCC(=O)O)C(=O)N[C@@H](CC(=O)O)C(=O)N[C@@H](Cc1ccccc1)C(=O)N[C@@H](CCC(N)=O)C(=O)N[C@@H](CCC(=O)O)C(=O)N1CCC[C@H]1C(=O)N[C@@H](CS)C(=O)N[C@@H](CCC(N)=O)C(=O)N[C@@H](Cc1ccc(O)cc1)C(=O)N[C@@H](CO)C(=O)N[C@@H](CCC(N)=O)C(=O)N[C@@H](CCC(=O)O)C(=O)N[C@@H](CO)C(=O)N[C@@H](CCC(=O)O)C(=O)N[C@@H](CCC(=O)O)C(=O)N[C@@H](CCC(=O)O)C(=O)N[C@@H](CCC(=O)O)C(=O)N[C@@H](CCC(=O)O)C(=O)O [Example 19] (H-[12Ado]RKFQNSPAEDFQEPCQYSQESEEEEE-OH),62

# Next, values leading:
row,Binding inhibition activity (%),Structure (SMILES)
1,65,C[C@H](NC(=O)[C@@H]1CCCN1C(=O)[C@H](CO)NC(=O)[C@H](CC(N)=O)NC(=O)[C@H](CCC(N)=O)NC(=O)[C@H](Cc1ccccc1)NC(=O)[C@H](CCCCN)NC(=O)[C@H](CCCNC(=N)N)NC(=O)CCCCCCCCCCCCCCCCCN)C(=O)N[C@@H](CCC(=O)O)C(=O)N[C@@H](CC(=O)O)C(=O)N[C@@H](Cc1ccccc1)C(=O)N[C@@H](CCC(N)=O)C(=O)N[C@@H](CCC(=O)O)C(=O)N1CCC[C@H]1C(=O)N[C@@H](CS)C(=O)N[C@@H](CCC(N)=O)C(=O)N[C@@H](Cc1ccc(O)cc1)C(=O)N[C@@H](CO)C(=O)N[C@@H](CCC(N)=O)C(=O)N[C@@H](CCC(=O)O)C(=O)N[C@@H](CO)C(=O)NCC(=O)O [Example 20] (X1-RKFQNSPAEDFQEPCQYSQESG-OH)
2,48,CC[C@H](C)[C@H](NC(=O)[C@H](CC(N)=O)NC(=O)[C@H](CC(=O)O)NC(=O)[C@H](CC(=O)O)NC(=O)[C@H](CC(=O)O)NC(=O)[C@H](CCCCN)NC(=O)[C@H](CC(N)=O)NC(=O)[C@@H](NC(=O)[C@@H](NC(=O)[C@H](CC(C)C)NC(=O)[C@H](C)NC(=O)[C@H](CCC(N)=O)NC(=O)CCCCCCCCCCCN)[C@@H](C)O)[C@@H](C)O)C(=O)N[C@@H](CC(C)C)C(=O)N[C@@H](Cc1ccccc1)C(=O)N[C@@H](CCCNC(=N)N)C(=O)N[C@@H](CC(=O)O)C(=O)N[C@@H](CO)C(=O)N[C@@H](C)C(=O)N[C@@H](CCC(=O)O)C(=O)N[C@@H](CCC(=O)O)C(=O)N[C@@H](CCC(=O)O)C(=O)N[C@@H](CCC(=O)O)C(=O)N[C@@H](CCC(=O)O)C(=O)O [Example 27] (H-[12Ado]QALTTNKDDDNILFRDSAEEEEE-OH)
3,47,CC[C@H](C)[C@H](NC(=O)[C@H](CC(N)=O)NC(=O)[C@H](CC(=O)O)NC(=O)[C@H](CC(=O)O)NC(=O)[C@H](CC(=O)O)NC(=O)[C@H](CCCCN)NC(=O)[C@H](CC(N)=O)NC(=O)[C@@H](NC(=O)[C@@H](NC(=O)[C@H](CC(C)C)NC(=O)[C@H](C)NC(=O)[C@H](CCC(N)=O)NC(=O)CCCCCCCCCCCCCCCCCN)[C@@H](C)O)[C@@H](C)O)C(=O)N[C@@H](CC(C)C)C(=O)N[C@@H](Cc1ccccc1)C(=O)N[C@@H](CCCNC(=N)N)C(=O)N[C@@H](CC(=O)O)C(=O)N[C@@H](CO)C(=O)N[C@@H](C)C(=O)NCC(=O)O [Example 28] (X1-QALTTNKDDDNILFRDSAG-OH)
4,60,CC(C)C[C@H](NC(=O)[C@H](CCC(=O)O)NC(=O)[C@H](Cc1ccccc1)NC(=O)[C@H](CCCNC(=N)N)NC(=O)[C@H](CC(C)C)NC(=O)[C@H](CCCNC(=N)N)NC(=O)[C@H](Cc1ccc(O)cc1)NC(=O)[C@H](Cc1ccccc1)NC(=O)[C@H](CO)NC(=O)[C@H](CO)NC(=O)[C@H](CC(N)=O)NC(=O)[C@H](Cc1c[nH]c2ccccc12)NC(=O)CCCCCCCCCCCN)C(=O)N[C@@H](CCCNC(=N)N)C(=O)N[C@@H](Cc1ccc(O)cc1)C(=O)N[C@@H](CCCNC(=N)N)C(=O)N[C@@H](C)C(=O)N[C@@H](CCC(=O)O)C(=O)N[C@@H](CCCNC(=N)N)C(=O)N[C@@H](CO)C(=O)N[C@@H](CCCCN)C(=O)N[C@@H](CCC(=O)O)C(=O)N[C@@H](CCC(=O)O)C(=O)N[C@@H](CCC(=O)O)C(=O)N[C@@H](CCC(=O)O)C(=O)N[C@@H](CCC(=O)O)C(=O)O [Example 35] (H-[12Ado]WNSSFYRLRFELRYRAERSKEEEEE-OH)
5,62,CC(C)C[C@H](NC(=O)[C@H](CCC(=O)O)NC(=O)[C@H](Cc1ccccc1)NC(=O)[C@H](CCCNC(=N)N)NC(=O)[C@H](CC(C)C)NC(=O)[C@H](CCCNC(=N)N)NC(=O)[C@H](Cc1ccc(O)cc1)NC(=O)[C@H](Cc1ccccc1)NC(=O)[C@H](CO)NC(=O)[C@H](CO)NC(=O)[C@H](CC(N)=O)NC(=O)[C@H](Cc1c[nH]c2ccccc12)NC(=O)CCCCCCCCCCCCCCCCCN)C(=O)N[C@@H](CCCNC(=N)N)C(=O)N[C@@H](Cc1ccc(O)cc1)C(=O)N[C@@H](CCCNC(=N)N)C(=O)N[C@@H](C)C(=O)N[C@@H](CCC(=O)O)C(=O)N[C@@H](CCCNC(=N)N)C(=O)N[C@@H](CO)C(=O)N[C@@H](CCCCN)C(=O)NCC(=O)O [Example 36] (X1-WNSSFYRLRFELRYRAERSKG-OH)
6,32,CC(C)C[C@H](NC(=O)[C@H](Cc1c[nH]c2ccccc12)NC(=O)[C@H](CCCNC(=N)N)NC(=O)[C@@H]1CCCN1C(=O)[C@H](CC(N)=O)NC(=O)CCCCCCCCCCCN)C(=O)N[C@@H](CO)C(=O)N[C@H](C(=O)N[C@H](C(=O)N[C@@H](Cc1c[nH]c2ccccc12)C(=O)N[C@@H](CCC(N)=O)C(=O)N[C@@H](CC(=O)O)C(=O)N1CCC[C@H]1C(=O)N[C@@H](Cc1c[nH]cn1)C(=O)N[C@@H](CO)C(=O)N[C@@H](CCC(=O)O)C(=O)N[C@@H](CCC(=O)O)C(=O)N[C@@H](CCC(=O)O)C(=O)N[C@@H](CCC(=O)O)C(=O)N[C@@H](CCC(=O)O)C(=O)O)[C@@H](C)O)C(C)C [Example 51] (H-[12Ado]NPRWLSVTWQDPHSEEEEE-OH)
